# Assay results as given in patent publication US8207177B2, “Inhibitors of E1 activating enzymes” (Millennium Pharmaceuticals, Inc., priority 2006, dated 2012).
# Target: T1, recombinant human NAE enzyme (Homo sapiens, UniProt Q8TBC4)
# T1 construct: His (N); made in house; host or cells: Sf9 insect cells (baculovirus, Bac-to-Bac), purified on Ni-NTA
# T1 sequence (Q8TBC4 1-463): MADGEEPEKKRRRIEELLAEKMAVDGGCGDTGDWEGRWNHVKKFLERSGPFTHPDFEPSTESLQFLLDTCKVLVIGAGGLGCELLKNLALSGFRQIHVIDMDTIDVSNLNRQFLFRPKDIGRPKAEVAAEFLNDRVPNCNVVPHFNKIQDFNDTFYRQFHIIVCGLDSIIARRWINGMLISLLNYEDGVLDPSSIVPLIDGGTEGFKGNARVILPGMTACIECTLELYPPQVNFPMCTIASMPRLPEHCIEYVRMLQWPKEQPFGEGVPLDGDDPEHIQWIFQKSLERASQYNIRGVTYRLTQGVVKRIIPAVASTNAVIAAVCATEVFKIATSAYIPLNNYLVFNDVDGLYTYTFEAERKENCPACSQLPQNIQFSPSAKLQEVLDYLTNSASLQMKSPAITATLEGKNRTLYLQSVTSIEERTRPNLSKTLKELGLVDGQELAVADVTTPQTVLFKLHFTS
# T1 sequence (Q13564 1-534 partner): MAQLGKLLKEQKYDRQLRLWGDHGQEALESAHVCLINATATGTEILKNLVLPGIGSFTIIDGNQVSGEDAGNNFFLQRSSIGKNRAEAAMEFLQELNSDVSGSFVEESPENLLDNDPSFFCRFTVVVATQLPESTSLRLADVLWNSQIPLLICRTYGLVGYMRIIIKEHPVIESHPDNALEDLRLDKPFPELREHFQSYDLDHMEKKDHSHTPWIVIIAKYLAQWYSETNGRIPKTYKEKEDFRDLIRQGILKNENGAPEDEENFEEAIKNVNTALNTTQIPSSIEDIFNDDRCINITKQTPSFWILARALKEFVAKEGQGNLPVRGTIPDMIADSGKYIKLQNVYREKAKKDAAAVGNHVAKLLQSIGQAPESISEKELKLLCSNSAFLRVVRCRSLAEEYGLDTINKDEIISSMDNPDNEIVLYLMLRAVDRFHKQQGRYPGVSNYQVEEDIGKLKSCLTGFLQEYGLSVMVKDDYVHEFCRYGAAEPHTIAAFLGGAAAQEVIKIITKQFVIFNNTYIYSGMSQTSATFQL
# Assay: Nedd8-Activating Enzyme (NAE) HTRF Assay
# Type: biochemical
# Details: threshold statement: less than or equal to 100 nM; 20 μM ATP, 90 minutes at 24° C.
# Outline: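 Sf9-expressed NAEα/His-NAEβ complex (0.28 nM) with 0.075 μM Nedd8-Flag, 0.01 μM Ubc12-GST, 20 μM ATP in 50 mM HEPES pH 7.5, 5 mM MgCl2, 250 μM GSH, 0.05% BSA; 90 min at 24 °C. EDTA stop, then Eu-cryptate anti-FLAG/XL-APC anti-GST detection for 3 h at 24 °C, HTRF read-out.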
row,SMILES,IC50
1,"NS(=O)(=O)OC[C@@H]1C[C@@H](n2ccc3c(NCc4ccccc4OC(F)F)ncnc32)C[C@@H]1O [Compound I-2, [(1S,2S,4R)-4-(4-{[2-(difluoromethoxy)benzyl]amino}-7H-pyrrolo[2,3-d]-pyrimidin-7-yl)-2-hydroxycyclopentyl]methyl sulfamate]",≤ 100 nM
2,"NS(=O)(=O)OC[C@@H]1C[C@@H](n2ccc3c(N[C@H]4CCc5cc(Br)ccc54)ncnc32)C[C@@H]1O [Compound I-33, [(1S,2S,4R)-4-(4-{[(1S)-5-bromo-2,3-dihydro-1H-inden-1-yl]amino}-7H-pyrrolo-[2,3-d]pyrimidin-7-yl)-2-hydroxycyclopentyl]methyl sulfamate]",≤ 100 nM
3,"NS(=O)(=O)/C=C/[C@@H]1C[C@@H](n2ccc3c(N[C@H]4CCc5ccccc54)ncnc32)C[C@@H]1O [Compound I-73, (E)-2-((1S,2S,4R)-4-{4-[(1S)-2,3-dihydro-1H-inden-1-ylamino]-7H-pyrrolo[2,3-d]pyrimidin-7-yl}-2-hydroxycyclopentyl)ethylenesulfonamide]",≤ 100 nM
4,"NS(=O)(=O)OC[C@@H]1C[C@@H](n2ccc3c(NCc4ccc(Cl)cc4)ncnc32)[C@H](O)[C@@H]1O [Compound I-22, ((1S,2R,3S,4R)-4-{4-[(4-chlorobenzyl)amino]-7H-pyrrolo[2,3-d]pyrimidin-7-yl)-2,3-dihydroxycyclopentyl)methyl sulfamate]",≤ 100 nM
5,"NS(=O)(=O)OC[C@@H]1C[C@@H](n2ccc3c(N[C@H]4CCOc5ccccc54)ncnc32)C[C@@H]1O [Compound I-12, ((1S,2S,4R)-4-{4-[(4S)-3,4-dihydro-2H-chromen-4-ylamino]-7H-pyrrolo[2,3-d]-pyrimidin-7-yl}-2-hydroxycyclopentyl)methyl sulfamate]",≤ 100 nM
6,"CC1(C)C[C@H](Nc2ncnc3c2ccn3[C@@H]2C[C@@H](COS(N)(=O)=O)[C@@H](O)C2)c2ccccc21 (single isomer, unassigned) [Compound I-14]",≤ 100 nM
7,"CO[C@H]1Cc2ccccc2[C@H]1Nc1ncnc2c1c(F)cn2[C@@H]1C[C@@H](COS(N)(=O)=O)[C@@H](O)C1 [Compound I-69, [(1S,2S,4R)-4-(5-fluoro-4-{[(1R,2S)-2-methoxy-2,3-dihydro-1H-inden-1-yl]amino}-7H-pyrrolo[2,3-d]pyrimidin-7-yl)-2-hydroxycyclopentyl]methyl sulfamate]",≤ 100 nM

# Further lines, results first:
row,IC50,SMILES
1,≤ 100 nM,"C#Cc1cn([C@@H]2C[C@@H](COS(N)(=O)=O)[C@@H](O)C2)c2ncnc(C)c12 [Compound I-44, [(1S,2S,4R)-4-(5-ethynyl-4-methyl-7H-pyrrolo[2,3-d]pyrimidin-7-yl)-2-hydroxycyclopentyl]methyl sulfamate]"
2,≤ 100 nM,"C[C@H](Nc1ncnc2c1ccn2[C@@H]1C[C@@H](COS(N)(=O)=O)[C@@H](O)C1)c1ccccc1 [Compound I-4, [(1S,2S,4R)-2-hydroxy-4-(4-{[(1S)-1-phenylethyl]amino}-7H-pyrrolo[2,3-d]-pyrimidin-7-yl)cyclopentyl]methyl sulfamate]"
3,≤ 100 nM,"CCO[C@H]1Cc2ccccc2[C@H]1Nc1ncnc2c1ccn2[C@@H]1C[C@@H](COS(N)(=O)=O)[C@@H](O)C1 [Compound I-70, [(1S,2S,4R)-4-(4-{[(1R,2S)-2-ethoxy-2,3-dihydro-1H-inden-1-yl]amino}-7H-pyrrolo[2,3-d]pyrimidin-7-yl)-2-hydroxycyclopentyl]methyl sulfamate]"
